Data reported in patent US7781446B2, “Use of CCI-779 as an antineoplastic agent” (Wyeth LLC, priority 2000, dated 2010).

How the values were obtained:
[1] = tested on: advanced cancer (solid tumors) refractory to standard therapy; test: Phase I clinical trial, 30 minute i.v. infusion once weekly; type: in vivo, human; settings: for number of partial responses: weekly dosage schedule
Protocol: (§1) Two single agent (CCI-779) Phase I clinical trials have been conducted. In the first study, CCI-779 was administered as a 30 minute i.v. infusion daily for 5 days, every two to three weeks. In the second study, CCI-779 was administered as a 30 minute i.v. infusion, once weekly. Both trials were open label, ascending dose, single-arm, multicenter studies. Patients were allowed to continue treatment as long as the CCI-779 was tolerated and there was no evidence of obvious disease progression. The following eligibility criteria were used:
(§2) Inclusion Criteria • 1. Patients with a histologic diagnosis of advanced cancer (solid tumors and, in the first study, lymphomas) who are refractory to standard therapy or for whom standard therapy is not appropriate. • 2. Measurable or evaluable disease. • 3. At least 3 weeks since prior chemotherapy and/or radiation therapy (6 weeks since nitrosoureas or mitomycin C). • 4. At least 4 weeks since any other investigational agent. • 5. Age at least 18 years old. • 6. Adequate bone marrow, renal, and hepatic function. • 7. Serum cholesterol<350 mg/dL and triglycerides […]. • 8. ECOG performance status 0-2. • 9. Life expectancy of at least 3 months. • 10. Signed, dated, witnessed written informed consent.
(§3) A total of 63 patients and 24 patients were enrolled in first and second studies, respectively. Dose levels ranged from 0.75-24 mg/m^2 and 7.5-220 mg/m^2, with the daily×5 every 2 weeks and weekly schedules, respectively.

[2] = tested on: advanced cancer (solid tumors and lymphomas) refractory to standard therapy; test: Phase I clinical trial, 30 minute i.v. infusion daily for 5 days every two to three weeks; type: in vivo, human
Protocol: as §1, §2, §3

[3] = tested on: HTB-44 human renal tumor cells; test: Human renal tumor cell xenograft in nude mice; type: in vivo, Balb/c nu/nu mice; settings: HTB-44 xenograft; for Tumor Mass / % T/C (Treated/Control × 100): 25 mg/kg oral
Protocol: (§4) In vivo test procedure: Female Balb/c nu/nu mice were obtained from Charles River Labs, Wilmington, Del., at 6-8 weeks of age. Mice (n=10/group) were injected sc with 5×10^6 cells resuspended in a 50% solution of Matrigel (BD Biosciences) and tumors allowed to develop. When tumor size reached 100 mg, mice were treated orally with CCI-779 at 25 mg/kg. CCI-779 was dosed for 5 consecutive days with repeated 14 day cycles throughout the duration of the experiment. The formulation used for CCI-779 was a 50% ethanol, 49% phosal, 1% tween 80 vehicle for resuspending CCI-779, where the stock was resuspended into a 1:10 dilution of the vehicle prior to dosing. Tumor growth was evaluated using a vernier caliper and volume (l×w×h) was converted to mass using the formula: 1×w^2/2.
(§5) The effect of CCI-779 in two human renal lines (HTB-44 and CRL-1161) was evaluated in vivo by engrafting tumor cells on the flanks of nude mice. Once tumors were established at a size of about 100 mg, mice were treated with CCI-779 or a vehicle control.

[4] = tested on: CRL-1161 human renal tumor cells; test: Human renal tumor cell xenograft in nude mice; type: in vivo, Balb/c nu/nu mice; settings: CRL-1161 xenograft; for Tumor Mass / % T/C (Treated/Control × 100): 25 mg/kg oral
Protocol: as §4, §5

Renal tumor line HTB-44 = test: In vitro growth of human renal tumor cells, 3H-thymidine uptake; type: cell-based; settings: 48 hours with drug
Protocol: (§6) In vitro test procedure: Renal tumor lines HTB-44 and CRL-1161 were obtained from the American Tissue Culture Collection (ATCC), Bethesda, Md. SN12-C line was obtained from Dr. J. Fidler, M. D. Anderson Hospital, Houston, Tex. Cells were plated in MEM (Gibco) supplemented with 2 mM glutamine, 1 mM sodium pyruvate, 5 ml penicillin-streptomycin solution, 1 mM non-essential amino acid solution, 10% fetal bovine solution. Cells (5×10^3) were plated in 96 well plates with a final volume of […] and incubated for 24 hours at 37° C. Log dilutions of CCI-779 beginning at 100 μg/ml were then added to the cultures for 48 hours. Over the last 5 hours, cells were pulsed with 1 μci ^3H-thymidine (New England Nuclear, 6.7 ci/m Mol). Cells were then harvested and the degree of thymidine uptake determined by liquid scintillation spectrometry. The IC50 was determined as the concentration that produced 50% of the maximum uptake of thymidine in control untreated cells.
(§7) Human renal cell tumors were cultured in vitro in the presence or absence of CCI-779 for 3 days and the effect on growth determined by ^3H-thymidine incorporation of control versus treated cells.

[5] = tested on: Renal tumor line CRL-1161; test: as above; type: cell-based; settings: 48 hours with drug
Protocol: as §6, §7

Renal tumor line SN12-C = test: as above; type: cell-based; settings: 48 hours with drug
Protocol: as §6, §7

[6] = patients having renal cancer, weekly schedule
[7] = patients having soft tissue sarcoma, daily×5 dosage schedule
[8] = renal cancer patients, daily×5 schedule
[9] = 5 consecutive days, 14 day cycles, day 0
[10] = 25 mg/kg, versus vehicle control
[11] = Homo sapiens, read-out: CCI-779 IC50 (50% growth inhibitory concentration)

CO[C@H]1C[C@@H]2CC[C@@H](C)[C@@](O)(O2)C(=O)C(=O)N2CCCC[C@H]2C(=O)O[C@H]([C@H](C)C[C@@H]2CC[C@@H](OC(=O)C(C)(CO)CO)[C@H](OC)C2)CC(=O)[C@H](C)/C=C(\C)[C@@H](O)[C@@H](OC)C(=O)[C@H](C)C[C@H](C)/C=C/C=C/C=C/1C [CCI-779, rapamycin 42-ester with 3-hydroxy-2-(hydroxymethyl)-2-methylpropionic acid]
number of minor responses (≧25% but<50% reduction in tumor size) [1, 6]: 2
number of partial responses (≧50% reduction in tumor size) [1, 6]: 1
number of partial responses ([1]; patients with breast cancer): one
number of partial responses ([1]; patients with neuroendocrine tumor of the lung): one
number of minor responses ([2]; patients having cervical cancer, daily×5 dosage schedule): one
number of partial responses ([2]; patients having non-small cell lung cancer, daily×5 dosage schedule): one
number of minor responses [2, 7]: 2
number of possible partial responses [2, 7]: 1
number of stable disease [2, 7]: 1
number of unconfirmed minor responses ([2]; patients having uterine cancer, daily×5 dosage schedule): one
duration of stable disease [2, 8]: approximately 5 months
number of minor responses [2, 8]: 1
number of stable disease (<25% increase to <25% reduction in tumor size) [2, 8]: 1
number of unconfirmed minor responses [2, 8]: 1
Tumor Mass [3, 9]: 290 ± 15 mg
% T/C (Treated/Control × 100) ([3]; day 0): 101%
% T/C (Treated/Control × 100) ([3]; day 7): 71%
Tumor Mass ([3]; day 7): 156 ± 13 mg
% T/C (Treated/Control × 100) ([3]; day 21): 41%
Tumor Mass ([3]; day 21): 252 ± 48 mg
% T/C (Treated/Control × 100) ([3]; day 35): 41%
Tumor Mass ([3]; day 35): 453 ± 85 mg
% T/C (Treated/Control × 100) ([3]; day 49): 48%
Tumor Mass ([3]; day 49): 980 ± 155 mg
% T/C (Treated/Control × 100) ([3]; day 55): 44%
Tumor Mass ([3]; day 55): 1050 ± 183 mg
inhibition of tumor cell growth in the mice [3, 10]: significant inhibition of tumor cell growth
Tumor Mass [4, 9]: 272 ± 14 mg
% T/C (Treated/Control × 100) ([4]; day 0): 100%
% T/C (Treated/Control × 100) ([4]; day 7): 62%
Tumor Mass ([4]; day 7): 219 ± 16 mg
% T/C (Treated/Control × 100) ([4]; day 21): 60%
Tumor Mass ([4]; day 21): 226 ± 17 mg
% T/C (Treated/Control × 100) ([4]; day 35): 42%
Tumor Mass ([4]; day 35): 200 ± 21 mg
% T/C (Treated/Control × 100) ([4]; day 49): 42%
Tumor Mass ([4]; day 49): 229 ± 28 mg
% T/C (Treated/Control × 100) ([4]; day 55): 53%
Tumor Mass ([4]; day 55): 268 ± 30 mg
inhibition of tumor cell growth in the mice [4, 10]: significant inhibition of tumor cell growth
CCI-779 IC50 (50% growth inhibitory concentration) (Renal tumor line HTB-44): low nM range
IC50 (Renal tumor line HTB-44; [11]): 5 nM
CCI-779 IC50 (50% growth inhibitory concentration) [5]: low nM range
IC50 [5, 11]: 2 nM
CCI-779 IC50 (50% growth inhibitory concentration) (Renal tumor line SN12-C): low nM range
IC50 (Renal tumor line SN12-C; Homo sapiens, SN12C, read-out: CCI-779 IC50 (50% growth inhibitory concentration)): 5.5 nM
